Results as given in patent publication US11040981B2, “Pyrrolotriazine compounds and methods of inhibiting TAM kinases” (Syros Pharmaceuticals, Inc., priority 2017, dated 2021).

Key:
TYRO3 = target: T1, TYRO3 (Homo sapiens, UniProt Q06418); test: TR-FRET kinase activity assay, TYRO3; type: biochemical; conditions: ATP at Km, 60 minutes
T1 sequence (Q06418 41-890): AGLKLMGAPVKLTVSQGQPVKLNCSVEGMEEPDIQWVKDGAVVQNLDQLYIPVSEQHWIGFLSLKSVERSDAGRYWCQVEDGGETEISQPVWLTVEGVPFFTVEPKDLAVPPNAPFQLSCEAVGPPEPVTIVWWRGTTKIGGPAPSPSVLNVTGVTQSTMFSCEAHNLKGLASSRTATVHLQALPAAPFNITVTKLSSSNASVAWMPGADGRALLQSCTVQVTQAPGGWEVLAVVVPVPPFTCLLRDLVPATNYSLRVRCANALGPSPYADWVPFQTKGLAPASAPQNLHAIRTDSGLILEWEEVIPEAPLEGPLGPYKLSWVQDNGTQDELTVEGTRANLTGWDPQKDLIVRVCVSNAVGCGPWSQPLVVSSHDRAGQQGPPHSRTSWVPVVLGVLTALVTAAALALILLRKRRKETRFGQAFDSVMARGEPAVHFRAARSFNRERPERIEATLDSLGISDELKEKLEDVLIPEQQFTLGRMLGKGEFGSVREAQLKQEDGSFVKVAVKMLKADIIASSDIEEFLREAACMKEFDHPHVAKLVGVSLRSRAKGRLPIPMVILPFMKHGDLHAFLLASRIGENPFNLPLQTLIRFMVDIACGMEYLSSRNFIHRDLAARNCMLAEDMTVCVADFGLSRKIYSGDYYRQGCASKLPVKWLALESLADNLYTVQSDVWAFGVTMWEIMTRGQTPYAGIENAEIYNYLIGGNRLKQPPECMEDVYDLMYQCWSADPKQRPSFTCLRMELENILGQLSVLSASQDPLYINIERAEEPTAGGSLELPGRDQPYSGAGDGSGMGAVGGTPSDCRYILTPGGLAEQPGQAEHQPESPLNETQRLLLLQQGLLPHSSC
Method: (§1) IC50 values for compound inhibition of AXL, FLT3, MERTK and TYRO3 activity were determined by using a TR-FRET activity assay. A polypeptide substrate with a fluorescent label is phosphorylated on a tyrosine by each enzyme, where the now phosphorylated product is bound by a Europium-labeled antibody specific to that phosphorylation site. The proximity between the antibody and the substrate gives a signal known as TR-FRET. As the enzyme is inhibited by compound, less phosphorylated peptide product is made causing a decrease in overall signal.
(§2) Activity assays were performed in a 384-well, small volume, black microplates in an active enzyme volume of 10 μL and final developed volume of 20 μL. Final assay conditions are 50 mM HEPES pH 7.5, 10 mM MgCl2, 1 mM EGTA, 0.01% Brij 35 and 1 mM DTT all at RT. Enzyme, substrate labeled peptide and compound are mixed, and then the reaction is initiated with the addition of ATP at Km concentration for each enzyme. The reaction is allowed to run 60 minutes and then quenched with a 12.5 mM EDTA (ethylenediamine tetraacetic acid) solution. The plate is then developed with the addition of Europium labeled antibody for a final volume of 20 μL and is then incubated for 30 minutes in darkness. Plates are read in a Pherastar plate reader. Data is analyzed in GraphPad PRISM.
(§3) The results of these assays are shown in Table 1, below, wherein “No.” designates compound number (FIG. 1); “A” represents a value of ≤100 nM; “B” a value of >100 nM and ≤1 μM; “C” a value of >1 μM and ≤10 μM; “D” a value of >10 μM; “ND” is not determined. The ratio of Mer to FLT3 is calculated as follows: FLT3 IC50/Mer IC50. “+” represents a ratio of >2.0 and <10; “++” represents a ratio of between 10 and 100; and “+++” represents a ratio of >100.

AXL = target: T2, AXL (Homo sapiens, UniProt P30530); test: TR-FRET kinase activity assay, AXL; type: biochemical; conditions: ATP at Km, 60 minutes
T2 sequence (P30530 26-894): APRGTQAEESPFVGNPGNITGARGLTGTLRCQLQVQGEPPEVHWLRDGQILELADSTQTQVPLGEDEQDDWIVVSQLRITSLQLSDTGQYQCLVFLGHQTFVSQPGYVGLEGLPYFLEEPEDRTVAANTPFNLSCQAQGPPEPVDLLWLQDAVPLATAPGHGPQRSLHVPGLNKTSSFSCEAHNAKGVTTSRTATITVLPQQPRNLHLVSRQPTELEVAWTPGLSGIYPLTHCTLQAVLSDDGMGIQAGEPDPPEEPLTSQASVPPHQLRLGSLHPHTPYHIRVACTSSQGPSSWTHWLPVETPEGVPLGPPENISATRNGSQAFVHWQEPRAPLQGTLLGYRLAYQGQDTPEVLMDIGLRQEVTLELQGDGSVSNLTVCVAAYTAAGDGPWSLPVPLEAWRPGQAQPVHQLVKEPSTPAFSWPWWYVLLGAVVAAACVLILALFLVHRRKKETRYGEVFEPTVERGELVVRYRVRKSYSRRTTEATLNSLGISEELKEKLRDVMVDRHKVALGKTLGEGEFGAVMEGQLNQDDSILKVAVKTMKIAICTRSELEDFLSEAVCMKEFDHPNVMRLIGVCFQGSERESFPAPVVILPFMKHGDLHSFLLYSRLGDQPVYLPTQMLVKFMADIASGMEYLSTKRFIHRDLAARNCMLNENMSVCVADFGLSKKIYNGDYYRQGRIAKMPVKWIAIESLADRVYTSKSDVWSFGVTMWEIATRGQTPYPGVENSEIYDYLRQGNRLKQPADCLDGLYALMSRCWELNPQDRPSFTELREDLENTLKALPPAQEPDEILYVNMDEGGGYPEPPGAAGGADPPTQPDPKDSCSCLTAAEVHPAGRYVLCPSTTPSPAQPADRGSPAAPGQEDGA
Method: as §1, §2, §3

Row | IC50 (TYRO3) [nM] | IC50 (AXL) [nM] | SMILES
1 | ≤ 100 | ≤ 100 | CCCCCC(C)Nc1ncc2c(C3=CCC(C(=O)N4CCOCC4)CC3)cc(C3CCC(O)CC3)n2n1 (mixture of isomers) [Compound 110]
2 | ≤ 100 | ≤ 100 | CCCCC[C@H](C)Nc1ncc2c(-c3ccc(CN4CCN(C)CC4)cc3)cc([C@H]3CC[C@H](O)CC3)n2n1 [Compound 104]
3 | ≤ 100 | 100 to 1000 | CCCCC[C@H](C)Nc1ncc2c(-c3ccc(CN4CCN(C)CC4)cc3)cc([C@H]3CC[C@@H](O)CC3)n2n1 [Compound 105]
4 | ≤ 100 | ≤ 100 | CCCCC[C@H](C)Nc1ncc2c(NC3CCN(C)CC3)cc([C@H]3CC[C@H](O)CC3)n2n1 [Compound 107]
5 | 100 to 1000 | 100 to 1000 | CCCCC[C@H](C)Nc1ncc2c([C@H]3CC[C@H](C(=O)N4CCOCC4)CC3)cc([C@H]3CC[C@H](O)CC3)n2n1 [Compound 108]
6 | ≤ 100 | ≤ 100 | CCCCC[C@H](C)Nc1ncc2c([C@H]3CC[C@@H](C(=O)N4CCOCC4)CC3)cc([C@H]3CC[C@H](O)CC3)n2n1 [Compound 109, ((cis)-4-(2-((S)-heptan-2-ylamino)-7-((trans)-4-hydroxycyclohexyl)pyrrolo[2,1-f][1,2,4]triazin-5-yl)cyclohexyl)(morpholino)methanone]
7 | ≤ 100 | ≤ 100 | COCC(C)Nc1ncc2c(-c3ccc4nccn4c3)cc(C3CCC(O)CC3)n2n1 (stereo not shown) [Compound 193]
8 | ≤ 100 | 100 to 1000 | COC[C@H](C)Nc1ncc2c(-c3cncc(S(C)(=O)=O)c3)cc([C@H]3CC[C@H](O)CC3)n2n1 [Compound 194]
9 | ≤ 100 | 100 to 1000 | COC[C@H](C)Nc1ncc2c(-c3cncc(F)c3)cc([C@H]3CC[C@H](O)CC3)n2n1 [Compound 195]
10 | ≤ 100 | ≤ 100 | COC[C@H](C)Nc1ncc2c(-c3ccc(C(=O)N4CCCC4)cc3)cc([C@H]3CC[C@H](O)CC3)n2n1 [Compound 196]
11 | ≤ 100 | ≤ 100 | COC[C@H](C)Nc1ncc2c(-c3ccc(C(=O)N4CCS(=O)(=O)CC4)cc3)cc([C@H]3CC[C@H](O)CC3)n2n1 [Compound 197]
12 | ≤ 100 | 100 to 1000 | COCC(C)Nc1ncc2c(-c3ccc(-c4nnc(C)o4)cc3)cc(C3CCC(O)CC3)n2n1 (stereo not shown) [Compound 198]
13 | ≤ 100 | 100 to 1000 | COC[C@H](C)Nc1ncc2c(-c3cncc(C#N)c3)cc([C@H]3CC[C@H](O)CC3)n2n1 [Compound 201]
14 | ≤ 100 | 100 to 1000 | CC(Nc1ncc2c(-c3ccc(CN4CCOCC4)cc3)cc(C3CCC(O)CC3)n2n1)C(F)(F)F (stereo not shown) [Compound 202]
15 | ≤ 100 | ≤ 100 | C[C@@H](CC(F)(F)F)Nc1ncc2c(-c3ccc(CN4CCOCC4)cc3)cc([C@H]3CC[C@H](O)CC3)n2n1 [Compound 203]
16 | 100 to 1000 | 1000 to 10000 | C[C@H](Nc1ncc2c(-c3ccc(CN4CCOCC4)cc3)cc([C@H]3CC[C@H](O)CC3)n2n1)[C@H]1CCCO1 [Compound 204]
17 | ≤ 100 | 1000 to 10000 | C[C@H](Nc1ncc2c(-c3ccc(CN4CCOCC4)cc3)cc([C@H]3CC[C@H](O)CC3)n2n1)[C@@H]1CCCO1 [Compound 205]

Row | IC50 (TYRO3) [nM] | IC50 (AXL) [nM] | SMILES
18 | ≤ 100 | 100 to 1000 | COC[C@H](C)Nc1ncc2c(-c3cnn(C(C)(C)C)c3)cc([C@H]3CC[C@H](O)CC3)n2n1 [Compound 206]
19 | ≤ 100 | ≤ 100 | COC[C@H](C)Nc1ncc2c(-c3cnn(C(F)F)c3)cc([C@H]3CC[C@H](O)CC3)n2n1 [Compound 207]
20 | ≤ 100 | 100 to 1000 | COC[C@H](C)Nc1ncc2c(-c3ccn(C)n3)cc([C@H]3CC[C@H](O)CC3)n2n1 [Compound 208]
21 | ≤ 100 | 100 to 1000 | COCCn1cc(-c2cc([C@H]3CC[C@H](O)CC3)n3nc(N[C@@H](C)COC)ncc23)cn1 [Compound 209]
22 | ≤ 100 | 100 to 1000 | COC[C@H](C)Nc1ncc2c(-c3cccc4c3CNC4=O)cc([C@H]3CC[C@H](O)CC3)n2n1 [Compound 210]
23 | 100 to 1000 | 100 to 1000 | COCC[C@@H](C)Nc1ncc2c(-c3ccc(CN4CCOCC4)cc3)cc([C@H]3CC[C@H](O)CC3)n2n1 [Compound 212]
24 | ≤ 100 | ≤ 100 | Cc1cc(-c2cc([C@H]3CC[C@H](O)CC3)n3nc(N[C@@H](C)CC(F)(F)F)ncc23)ccn1 [Compound 213]
25 | ≤ 100 | 100 to 1000 | CC(C)OC[C@H](C)Nc1ncc2c(-c3ccc(CN4CCOCC4)cc3)cc([C@H]3CC[C@H](O)CC3)n2n1 [Compound 214]
26 | ≤ 100 | 100 to 1000 | Cc1cc(-c2cc([C@H]3CC[C@H](O)CC3)n3nc(N[C@@H](C)COC(C)C)ncc23)ccn1 [Compound 215]
27 | ≤ 100 | ≤ 100 | C[C@@H](CC1CC1)Nc1ncc2c(-c3ccc(CN4CCN(C)CC4)cc3)cc([C@H]3CC[C@H](O)CC3)n2n1 [Compound 216]
28 | ≤ 100 | 100 to 1000 | COC[C@H](C)Nc1ncc2c(-c3cccc(CN4CCOCC4)c3)cc([C@H]3CC[C@H](O)CC3)n2n1 [Compound 217]
29 | ≤ 100 | 100 to 1000 | COC[C@H](C)Nc1ncc2c(-c3cccc(CN4CCN(C)CC4)c3)cc([C@H]3CC[C@H](O)CC3)n2n1 [Compound 218]
30 | ≤ 100 | 100 to 1000 | COC[C@H](C)Nc1ncc2c(-c3cncc(CN4CCOCC4)c3)cc([C@H]3CC[C@H](O)CC3)n2n1 [Compound 219]
31 | ≤ 100 | ≤ 100 | COC[C@H](C)Nc1ncc2c(-c3cnn(Cc4cccnc4)c3)cc([C@H]3CC[C@H](O)CC3)n2n1 [Compound 220]
32 | ≤ 100 | ≤ 100 | COCC(C)Nc1ncc2c(-c3cnn(C4COC4)c3)cc(C3CCC(O)CC3)n2n1 (stereo not shown) [Compound 221]
33 | ≤ 100 | ≤ 100 | COC[C@H](C)Nc1ncc2c(-c3cnn(CCC#N)c3)cc([C@H]3CC[C@H](O)CC3)n2n1 [Compound 222]
34 | ≤ 100 | 100 to 1000 | COC[C@H](C)Nc1ncc2c(-c3cccc(CN4CC[C@@H](F)C4)c3)cc([C@H]3CC[C@H](O)CC3)n2n1 [Compound 224]

Row | SMILES | IC50 (TYRO3) [nM] | IC50 (AXL) [nM]
35 | COC[C@H](C)Nc1ncc2c(-c3cccc(CN4CCC(F)(F)C4)c3)cc([C@H]3CC[C@H](O)CC3)n2n1 [Compound 223] | ≤ 100 | 100 to 1000
